According to PubChem BioAssay AID2060500 (Molecular Pharmacology Branch, DTP, NCI, 2025):

Tested on: 596521-263-R-J1-PDC complex spheroids, viability % of control
Experiment: Anticancer human tumor 596521-263-R-J1-PDC patient-derived soft tissue sarcoma cell line growth inhibition [GQUAD]
Settings: for IC50: curve of first compound; for viability, T/C: stronger effect = lower value
Procedure, shortened: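 Viability of tumor cells grown as complex spheroids with endothelial and stromal cells, exposed to drug combinations. Top concentration at or near clinical Cmax (else 10 microM), diluted in half-log increments.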

[1] = second compound 0.0316 µM, first compound 0.0316 µM
[2] = second compound 0.0316 µM, first compound 0.1 µM
[3] = second compound 0.0316 µM, first compound 0.316 µM
[4] = second compound 0.0316 µM, first compound 1 µM
[5] = second compound 0.0316 µM, first compound 3.16 µM
[6] = second compound 0.0316 µM, first compound 10 µM
[7] = second compound 0.1 µM, first compound 0.0316 µM
[8] = second compound 0.1 µM, first compound 0.1 µM
[9] = second compound 0.1 µM, first compound 0.316 µM
[10] = second compound 0.1 µM, first compound 1 µM
[11] = second compound 0.1 µM, first compound 3.16 µM
[12] = second compound 0.1 µM, first compound 10 µM
[13] = second compound 0.316 µM, first compound 0.0316 µM
[14] = second compound 0.316 µM, first compound 0.1 µM
[15] = second compound 0.316 µM, first compound 0.316 µM
[16] = second compound 0.316 µM, first compound 1 µM
[17] = second compound 0.316 µM, first compound 3.16 µM
[18] = second compound 0.316 µM, first compound 10 µM
[19] = second compound 1 µM, first compound 0.0316 µM
[20] = second compound 1 µM, first compound 0.1 µM
[21] = second compound 1 µM, first compound 0.316 µM
[22] = second compound 1 µM, first compound 1 µM
[23] = second compound 1 µM, first compound 3.16 µM
[24] = second compound 1 µM, first compound 10 µM
[25] = second compound 3.16 µM, first compound 0.0316 µM
[26] = second compound 3.16 µM, first compound 0.1 µM
[27] = second compound 3.16 µM, first compound 0.316 µM
[28] = second compound 3.16 µM, first compound 1 µM
[29] = second compound 3.16 µM, first compound 3.16 µM
[30] = second compound 3.16 µM, first compound 10 µM
[31] = second compound 10 µM, first compound 0.0316 µM
[32] = second compound 10 µM, first compound 0.1 µM
[33] = second compound 10 µM, first compound 0.316 µM
[34] = second compound 10 µM, first compound 1 µM
[35] = second compound 10 µM, first compound 3.16 µM
[36] = second compound 10 µM, first compound 10 µM
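Note: spheroids exposed to drugs for 7 days before viability reading.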
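Throughout, for viability, T/C: 100% = DMSO vehicle control viability.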

In the case of CC(=O)O[C@H]1C(=O)[C@@]2(C)[C@H]([C@H](OC(=O)c3ccccc3)[C@]3(O)C[C@H](OC(=O)[C@H](O)[C@@H](NC(=O)c4ccccc4)c4ccccc4)C(C)=C1C3(C)C)[C@]1(OC(C)=O)CO[C@@H]1C[C@@H]2O + Cc1cnc(CNC(=O)c2c(=O)c3ccc(N4CCCN(C)CC4)nc3n3c2sc2ccccc23)cn1, the IC50 (second compound 0.0316 µM) is reported as < 31.6 nM, the IC50 (second compound 0.1 µM) is reported as < 31.6 nM and the IC50 (second compound 0.316 µM) is reported as < 31.6 nM. For the same compound, the IC50 (second compound 1 µM) was < 31.6 nM, the IC50 (second compound 3.16 µM) was < 31.6 nM and the IC50 (second compound 10 µM) was < 31.6 nM. The viability, T/C [1] was 44%, the viability, T/C [2] was 30.7% and the viability, T/C [3] was 23.5%. It also gave a viability, T/C [4] of 27.8%, a viability, T/C [5] of 25.9% and a viability, T/C [6] of 28%. For the same compound, the viability, T/C [7] was 43.7%, the viability, T/C [8] was 25.2% and the viability, T/C [9] was 28.9%. For the same compound, the viability, T/C [10] was 28.8%, the viability, T/C [11] was 29.3% and the viability, T/C [12] was 28.9%. The viability, T/C [13] was 38.5%, the viability, T/C [14] was 30.4% and the viability, T/C [15] was 25.1%. The viability, T/C [16] was 28.1%, the viability, T/C [17] was 29% and the viability, T/C [18] was 30.8%. It also gave a viability, T/C [19] of 36.5%, a viability, T/C [20] of 32.5% and a viability, T/C [21] of 28.5%. It also gave a viability, T/C [22] of 27.9%, a viability, T/C [23] of 27.7% and a viability, T/C [24] of 31.1%. The viability, T/C [25] was 35.4%, the viability, T/C [26] was 28.1% and the viability, T/C [27] was 24.5%. It also gave a viability, T/C [28] of 25.5%, a viability, T/C [29] of 27.6% and a viability, T/C [30] of 32.2%. It also gave a viability, T/C [31] of 7.69%, a viability, T/C [32] of 8.44% and a viability, T/C [33] of 7.94%. For the same compound, the viability, T/C [34] was 7.65%, the viability, T/C [35] was 0.28% and the viability, T/C [36] was 0.22%.

In the case of COc1cc(C2c3cc4c(cc3C(OC3OC5COC(C)OC5C(O)C3O)C3COC(=O)C23)OCO4)cc(OC)c1O (stereo unspecified) + Cc1cnc(CNC(=O)c2c(=O)c3ccc(N4CCCN(C)CC4)nc3n3c2sc2ccccc23)cn1, the IC50 (second compound 0.0316 µM) is reported as 2670 nM, the IC50 (second compound 0.1 µM) is reported as > 10000 nM and the IC50 (second compound 0.316 µM) is reported as 2800 nM. The IC50 (second compound 1 µM) was 1650 nM, the IC50 (second compound 3.16 µM) was 1770 nM and the IC50 (second compound 10 µM) was < 31.6 nM. It also gave a viability, T/C [1] of 99.8%, a viability, T/C [2] of 83.6% and a viability, T/C [3] of 77.8%. The viability, T/C [4] was 53.8%, the viability, T/C [5] was 50.7% and the viability, T/C [6] was 42.4%. The viability, T/C [7] was 91.8%, the viability, T/C [8] was 92% and the viability, T/C [9] was 75.8%. For the same compound, the viability, T/C [10] was 52%, the viability, T/C [11] was 56.6% and the viability, T/C [12] was 45.5%. It also gave a viability, T/C [13] of 76.6%, a viability, T/C [14] of 73.3% and a viability, T/C [15] of 81.6%. The viability, T/C [16] was 58%, the viability, T/C [17] was 50.3% and the viability, T/C [18] was 47.8%. The viability, T/C [19] was 65.9%, the viability, T/C [20] was 57.5% and the viability, T/C [21] was 55.5%. The viability, T/C [22] was 52.2%, the viability, T/C [23] was 51.1% and the viability, T/C [24] was 38.1%. It also gave a viability, T/C [25] of 56.3%, a viability, T/C [26] of 52.1% and a viability, T/C [27] of 55%. For the same compound, the viability, T/C [28] was 46.6%, the viability, T/C [29] was 50.4% and the viability, T/C [30] was 33.1%. It also gave a viability, T/C [31] of 48.8%, a viability, T/C [32] of 37.6% and a viability, T/C [33] of 47.1%. For the same compound, the viability, T/C [34] was 40.7%, the viability, T/C [35] was 43.5% and the viability, T/C [36] was 19.4%.

For COc1cccc2c1C(=O)c1c(O)c3c(c(O)c1C2=O)CC(O)(C(=O)CO)CC3OC1CC(N)C(O)C(C)O1 (stereo unspecified) + Cc1cnc(CNC(=O)c2c(=O)c3ccc(N4CCCN(C)CC4)nc3n3c2sc2ccccc23)cn1, the IC50 (second compound 0.0316 µM) was 750 nM, the IC50 (second compound 0.1 µM) was 784 nM and the IC50 (second compound 0.316 µM) was 795 nM. For the same compound, the IC50 (second compound 1 µM) was 511 nM, the IC50 (second compound 3.16 µM) was 338 nM and the IC50 (second compound 10 µM) was < 31.6 nM. For the same compound, the viability, T/C [1] was 98.3%, the viability, T/C [2] was 71.2% and the viability, T/C [3] was 66.6%. It also gave a viability, T/C [4] of 52.3%, a viability, T/C [5] of 26.5% and a viability, T/C [6] of 4.29%. It also gave a viability, T/C [7] of 87.2%, a viability, T/C [8] of 73.8% and a viability, T/C [9] of 57.1%. For the same compound, the viability, T/C [10] was 51.1%, the viability, T/C [11] was 31% and the viability, T/C [12] was 4.25%. The viability, T/C [13] was 78.7%, the viability, T/C [14] was 70.4% and the viability, T/C [15] was 55.5%. It also gave a viability, T/C [16] of 51.4%, a viability, T/C [17] of 29% and a viability, T/C [18] of 3.29%. For the same compound, the viability, T/C [19] was 69.6%, the viability, T/C [20] was 53% and the viability, T/C [21] was 50.7%. It also gave a viability, T/C [22] of 47.2%, a viability, T/C [23] of 30.7% and a viability, T/C [24] of 2.51%. The viability, T/C [25] was 50.7%, the viability, T/C [26] was 49% and the viability, T/C [27] was 52.7%. It also gave a viability, T/C [28] of 45.2%, a viability, T/C [29] of 23.8% and a viability, T/C [30] of 0.29%. It also gave a viability, T/C [31] of 46.8%, a viability, T/C [32] of 49.5% and a viability, T/C [33] of 46.4%. For the same compound, the viability, T/C [34] was 44.3%, the viability, T/C [35] was 11.4% and the viability, T/C [36] was 0.27%.
